Measurements from PMC3142157, “Sensitive and Specific Fluorescent Probes for Functional Analysis of the Three Major Types of Mammalian ABC Transporters” (PLoS ONE, 2011).

Experiments:
CHO K1 cells = assay: Dye uptake flow cytometry MDR assay (MAF / D-values), CHO K1 cells; type: cell-based, hamster; settings: for D-values Post Inhibitor Treatment (compared to uninhibited cells), CsA / D-values Post Inhibitor Treatment (compared to uninhibited cells), FTC / D-values Post Inhibitor Treatment (compared to uninhibited cells), MK-571 / D-values Post Inhibitor Treatment (compared to uninhibited cells), Verapamil: CHO K1; for MAF value, Fumitremorgin C / MAF value, Probenecid / MAF value, Verapamil: CHO K1 cells, dye uptake protocol; for MAF value, Fumitremorgin C: probe with vs without fumitremorgin C; for MAF value, Probenecid: probe with vs without probenecid; for MAF value, Verapamil: probe with vs without verapamil
Method: (§1) Detailed protocol for the MDR assay is available in the Instruction Manual for eFluxx-ID® Green or Gold Multi-Drug Resistance Assay Kit (ENZO Life Sciences, Inc., Farmingdale, NY). Briefly, on the day of the assay, cells were collected, washed with PBS and incubated with or without MDR inhibitors in the presence of the eFluxx-ID® Green or Gold probes for 30 min at 37°C and analyzed immediately by flow cytometry. eFluxx-ID® Green or Gold probes are novel xanthene-based small molecule dyes developed for the detection of MDR activity in living cells. In order to exclude dead cells in the analyses, propidium iodide (PI) or 7-actinaminomycin D (7-AAD) solution was added to the cells during the last 5 min of incubation in some experiments.
(§2) To develop a minimal step assay procedure for the dye uptake protocol, three modifications of the protocol were investigated. One set of the cells was treated according to a general “no-wash” protocol (see Instruction Manual for the kit). In the second set of tubes, the reaction was stopped by rapid centrifugation (1 min) at relatively low speed (200×g). After washing with ice-cold PBS and discarding the supernatant, cells were re-suspended in 0.5 ml of ice-cold medium and kept on ice until flow cytometry analysis was performed. The third set of cells was simply spun down (1 min, 200×g) to remove the excess probe, resuspended in ice-cold medium and kept on ice until flow cytometry analysis was performed. eFluxx-ID® Green dye (ex/em 490/514 nm) fluorescence intensity was measured in the FL1/FITC (530/30 filter) channel, and eFluxx-ID® Gold dye (ex/em 530/555 nm) fluorescence intensity was monitored in the FL2/PE (585/42 filter) channel.
(§3) Experiments were performed using a FACS Calibur benchtop flow cytometer (BD Biosciences, San Jose, CA) equipped with a blue (488 nm) laser, and the signals were registered in the FITC (530/30 filter), PE (585/42 filter) and PerCP (670 LP filter) channels. eFluxx-ID® Green dye fluorescence was measured in the FL1/FITC channel, and eFluxx-ID® Gold dye fluorescence, in the FL2/PE channel. Data analysis was performed using FlowJo 8.8.2 software (Tree Star, Inc., Ashland, OR).
(§4) All of the experiments were performed at least three times. Results were expressed as mean ± S.E. Statistical comparisons were made using an unpaired two-tailed Student's t-test. A P value of <0.05 was considered significant. Flow cytometry data were analyzed by comparison of median fluorescence, by using Kolmogorov-Smirnov statistics (D-value) or by calculating MDR Activity Factor (MAF) values using the following formula: MAF = 100*((MFIinh−MFI0)/MFIinh), wherein MFIinh and MFI0 are the mean fluorescence intensity values measured in the presence and absence of inhibitor [7].

A549 cells = assay: Dye uptake flow cytometry MDR assay (MAF / D-values), A549 cells; type: cell-based, human; settings: dye uptake protocol; for MAF value, Fumitremorgin C: probe with vs without fumitremorgin C; for MAF value, Probenecid: probe with vs without probenecid; for MAF value, Verapamil: probe with vs without verapamil
Method: as §1, §2, §3, §4

HeLa cells = assay: Dye uptake flow cytometry MDR assay (MAF), HeLa cells; type: cell-based, human; settings: dye uptake protocol; for MAF value, Fumitremorgin C: probe with vs without fumitremorgin C; for MAF value, Probenecid: probe with vs without probenecid; for MAF value, Verapamil: probe with vs without verapamil
Method: as §1, §2, §3, §4

HL-60 cells = assay: Dye uptake flow cytometry MDR assay (MAF), HL-60 cells; type: cell-based, human; settings: for MAF value, CsA: probe with vs without CsA; for MAF value, CsA / MAF value, Nov / MAF value, Ver: mean ± SEM; for MAF value, MK571: probe with vs without MK571, mean ± SEM; for MAF value, Nov: probe with vs without Nov; for MAF value, Ver: probe with vs without Ver
Method: (§5) Detailed protocol for the MDR assay is available in the Instruction Manual for eFluxx-ID® Green or Gold Multi-Drug Resistance Assay Kit (ENZO Life Sciences, Inc., Farmingdale, NY). […] In order to exclude dead cells in the analyses, propidium iodide (PI) or 7-actinaminomycin D (7-AAD) solution was added to the cells during the last 5 min of incubation in some experiments. Experiments were performed using a FACS Calibur benchtop flow cytometer (BD Biosciences, San Jose, CA) equipped with a blue (488 nm) laser, and the signals were registered in the FITC (530/30 filter), PE (585/42 filter) and PerCP (670 LP filter) channels. eFluxx-ID® Green dye fluorescence was measured in the FL1/FITC channel, and eFluxx-ID® Gold dye fluorescence, in the FL2/PE channel. Data analysis was performed using FlowJo 8.8.2 software (Tree Star, Inc., Ashland, OR). All of the experiments were performed at least three times. Results were expressed as mean ± S.E. Statistical comparisons were made using an unpaired two-tailed Student's t-test. […] Additionally, HCT-8 cell line reported to overexpress both MDR1 and MRP transporters, [21] was tested. HCT-8, HCT-15, HepG2, HL-60 and HL-60/MX1 cells were grown on tissue culture dishes and on the day of assay were incubated with eFluxx-ID® Green and Gold probes with and without inhibitors according to the described dye uptake protocol (Materials and Methods) and analyzed by flow cytometry.

HL-60/MX1 cells = assay: Dye uptake flow cytometry MDR assay (MAF), HL-60/MX1 cells; type: cell-based, human; settings: for MAF value, CsA: probe with vs without CsA; for MAF value, CsA / MAF value, Nov / MAF value, Ver: mean ± SEM; for MAF value, MK571: probe with vs without MK571, mean ± SEM; for MAF value, Nov: probe with vs without Nov; for MAF value, Ver: probe with vs without Ver
Method: as §5

HepG2 cells = assay: Dye uptake flow cytometry MDR assay (MAF), HepG2 cells; type: cell-based, human; settings: for MAF value, CsA: probe with vs without CsA; for MAF value, CsA / MAF value, Nov / MAF value, Ver: mean ± SEM; for MAF value, MK571: probe with vs without MK571, mean ± SEM; for MAF value, Nov: probe with vs without Nov; for MAF value, Ver: probe with vs without Ver
Method: as §5

HCT-8 cells = assay: Dye uptake flow cytometry MDR assay (MAF), HCT-8 cells; type: cell-based, human; settings: for MAF value, CsA: probe with vs without CsA; for MAF value, CsA / MAF value, Nov / MAF value, Ver: mean ± SEM; for MAF value, MK571: probe with vs without MK571, mean ± SEM; for MAF value, Nov: probe with vs without Nov; for MAF value, Ver: probe with vs without Ver
Method: as §5

HCT-15 cells = assay: Dye uptake flow cytometry MDR assay (MAF), HCT-15 cells; type: cell-based, human; settings: for MAF value, CsA: probe with vs without CsA; for MAF value, CsA / MAF value, Nov / MAF value, Ver: mean ± SEM; for MAF value, MK571: probe with vs without MK571, mean ± SEM; for MAF value, Nov: probe with vs without Nov; for MAF value, Ver: probe with vs without Ver
Method: as §5

[1] = dual probe treatment eFluxx-ID Gold + Pheophorbide A
[2] = dual probe treatment eFluxx-ID Green + Pheophorbide A
[3] = triple probe treatment CMFDA + eFluxx-ID Gold + Pheophorbide A
[4] = triple probe treatment DiOC2(3) + eFluxx-ID Gold + Pheophorbide A
[5] = dual probe treatment eFluxx-ID Gold + CMFDA
[6] = dual probe treatment eFluxx-ID Gold + DiOC2(3)

Molecule	D-values Post Inhibitor Treatment (compared to uninhibited cells), CsA (CHO K1 cells; [3])	D-values Post Inhibitor Treatment (compared to uninhibited cells), FTC (CHO K1 cells; [3])	D-values Post Inhibitor Treatment (compared to uninhibited cells), MK-571 (CHO K1 cells; [3])	D-values Post Inhibitor Treatment (compared to uninhibited cells), Verapamil (CHO K1 cells; [3])	D-values Post Inhibitor Treatment (compared to uninhibited cells), CsA (CHO K1 cells; [4])	D-values Post Inhibitor Treatment (compared to uninhibited cells), FTC (CHO K1 cells; [4])	D-values Post Inhibitor Treatment (compared to uninhibited cells), MK-571 (CHO K1 cells; [4])	MAF value, Fumitremorgin C (CHO K1 cells)	MAF value, Probenecid (CHO K1 cells)	MAF value, Verapamil (CHO K1 cells)	MAF value, Fumitremorgin C (A549 cells)	MAF value, Probenecid (A549 cells)	MAF value, Verapamil (A549 cells)	MAF value, Fumitremorgin C (HeLa cells)	MAF value, Probenecid (HeLa cells)	MAF value, Verapamil (HeLa cells)	MAF value, CsA (HCT-8 cells)	MAF value, MK571 (HCT-8 cells)	MAF value, Nov (HCT-8 cells)	MAF value, Ver (HCT-8 cells)	further results
C=Cc1c(C)c2cc3nc(c4c5[nH]c(cc6nc(cc1[nH]2)C(C)=C6CC)c(C)c5C(=O)[C@@H]4C(=O)OC)[C@@H](CCC(=O)O)[C@@H]3C [Pheophorbide A, pheophorbide A]	0.20	0.27	0.09	0.18	0.4	0.41	0.13	22.3	8.4	0.7	36.0	14.2	4.0	5.8	0.5	0					D-values Post Inhibitor Treatment (compared to uninhibited cells), CsA (CHO K1 cells; [1]): 0.25; D-values Post Inhibitor Treatment (compared to uninhibited cells), FTC (CHO K1 cells; [1]): 0.34; D-values Post Inhibitor Treatment (compared to uninhibited cells), MK-571 (CHO K1 cells; [1]): 0.14; D-values Post Inhibitor Treatment (compared to uninhibited cells), Verapamil (CHO K1 cells; [1]): 0.11; D-values Post Inhibitor Treatment (compared to uninhibited cells), CsA (CHO K1 cells; [2]): 0.25; D-values Post Inhibitor Treatment (compared to uninhibited cells), FTC (CHO K1 cells; [2]): 0.33; D-values Post Inhibitor Treatment (compared to uninhibited cells), MK-571 (CHO K1 cells; [2]): 0.15; D-values Post Inhibitor Treatment (compared to uninhibited cells), Verapamil (CHO K1 cells; [2]): 0.14; D-values Post Inhibitor Treatment (compared to uninhibited cells), Verapamil (CHO K1 cells; [4]): 0.17; MAF value, CsA (HL-60 cells): 6.5±1.7; MAF value, MK571 (HL-60 cells): 7.6±1.6; MAF value, Nov (HL-60 cells): 8.5±1.4; MAF value, Ver (HL-60 cells): 6.8±0.6; MAF value, CsA (HL-60/MX1 cells): 22.5±3.0; MAF value, MK571 (HL-60/MX1 cells): 10.2±3.7; MAF value, Nov (HL-60/MX1 cells): 23.4±0.8; MAF value, Ver (HL-60/MX1 cells): 7.6±3.8
CC(=O)Oc1ccc2c(c1)Oc1cc(OC(C)=O)ccc1C21OC(=O)c2cc(CCl)ccc21 [CMFDA, chloromethylfluorescein diacetate]	0.47	0.14	0.89	0.10				0	56.9	34.3	20.7	27.1	16.6	11.4	9.0	7.6	43.0±3.2	39.2±3.6	0	21.2±3.2	D-values Post Inhibitor Treatment (compared to uninhibited cells), CsA (CHO K1 cells; [5]): 0.49; D-values Post Inhibitor Treatment (compared to uninhibited cells), FTC (CHO K1 cells; [5]): 0.06; D-values Post Inhibitor Treatment (compared to uninhibited cells), MK-571 (CHO K1 cells; [5]): 0.91; D-values Post Inhibitor Treatment (compared to uninhibited cells), Verapamil (CHO K1 cells; [5]): 0.1; MAF value, CsA (HepG2 cells): 50.4±1.3; MAF value, MK571 (HepG2 cells): 52.2±3.8; MAF value, Nov (HepG2 cells): 7.0±1.7; MAF value, Ver (HepG2 cells): 12.8±1.3
Calcein AM								6.4	55.3	63.9	1.3	19.5	28.0	0.2	12.2	13.0	46.5±5.1	31.1±4.7	7.1±0.4	25.9±0.9	MAF value, CsA (HCT-15 cells): 67.2±2.0; MAF value, MK571 (HCT-15 cells): 13.5±2.9; MAF value, Nov (HCT-15 cells): 4.3±2.2; MAF value, Ver (HCT-15 cells): 62.9±2.6; MAF value, CsA (HepG2 cells): 59.0±2.4; MAF value, MK571 (HepG2 cells): 40.7±4.5; MAF value, Nov (HepG2 cells): 3.0±0.1; MAF value, Ver (HepG2 cells): 22.0±2.9; MAF value, CsA (HL-60 cells): 15.2±2.5; MAF value, MK571 (HL-60 cells): 8.0±1.7; MAF value, Nov (HL-60 cells): 8.6±1.5; MAF value, Ver (HL-60 cells): 2.5±1.1; MAF value, CsA (HL-60/MX1 cells): 18.2±2.7; MAF value, MK571 (HL-60/MX1 cells): 10.8±1.8; MAF value, Nov (HL-60/MX1 cells): 5.9±1.2; MAF value, Ver (HL-60/MX1 cells): 1.6±0.3
CCN1C(=CC=Cc2oc3ccccc3[n+]2CC)Oc2ccccc21.[I-] [DiOC2(3), 3,3′-diethyloxacarbocyanine iodide]					0.98	0.11	0.13	0	2.4	86.6	0.9	1.0	4.2	0	0	0	24.7±0.9	9.8±1.2	0	19.1±3.7	D-values Post Inhibitor Treatment (compared to uninhibited cells), CsA (CHO K1 cells; [6]): 0.94; D-values Post Inhibitor Treatment (compared to uninhibited cells), FTC (CHO K1 cells; [6]): 0.16; D-values Post Inhibitor Treatment (compared to uninhibited cells), MK-571 (CHO K1 cells; [6]): 0.13; D-values Post Inhibitor Treatment (compared to uninhibited cells), Verapamil (CHO K1 cells; [6]): 0.96; D-values Post Inhibitor Treatment (compared to uninhibited cells), Verapamil (CHO K1 cells; [4]): 0.98; MAF value, CsA (HCT-15 cells): 71.0±5.0; MAF value, MK571 (HCT-15 cells): 4.3±2.2; MAF value, Nov (HCT-15 cells): 0; MAF value, Ver (HCT-15 cells): 69.3±4.3
